Where two headings read alike, the source gives them in different places.

Assay [1] deals with T1, ATR kinase (Homo sapiens, UniProt Q13535).
T1 construct: purchased Eurofins 14-953
Put plainly: Inhibitory effect on ATR kinase activity (Caliper mobility shift, FAM-labeled RAD17 peptide substrate). Format: biochemical. As to the method:
Test Example 1: Inhibitory effect of the compounds of the present disclosure on ATR kinase activity
Test compounds to be tested were serially diluted with DMSO (maximum concentration 1 µM, 10 concentrations with 3-fold serial dilution) and added to the wells of a 384-well reaction plate (Corning, #4512). 1 nM ATR kinase (Eurofins, #14-953), 5 mM substrate (FAM-labeled RAD17 peptide, FAM-ASELPASQPQPFSAKKK), 5 mM ATP and the compounds with corresponding concentrations reacted in a kinase reaction solution (50 mM HEPES, pH 7.5; 0.0015% Brij-35; 10 mM MnCl2, total volume of 20 µL) at 28°C for 3 hours. The reaction was terminated by adding 30 µL of stop solution (100 mM HEPES, pH 7.5; 0.015% Brij-35; 0.2% Coating Reagent #3, PerkinElmer; 50 mM EDTA). The reaction plate was placed on a Caliper instrument (PerkinElmer) for testing. The relative inhibitory activity of each compound concentration group was calculated using the following formula: % Inhibition = (Conversion rate of the blank control group without compound added - Conversion rate of the test compound group) / (Conversion rate of the blank control group - […]). The IC50 values were calculated using GraphPad analysis and fitted. […] Table 1. Inhibitory effect (IC50) of compounds on ATR kinase activity.

For assay [2], the system named is LoVo cells. Put plainly: LoVo cell proliferation assay (CellTiter-Glo). The assay is classed as cell-based. The following applies: maximum concentration 10 µM, 9 concentrations. The method, then: Test Example 2: LoVo cell proliferation assay
LoVo (ATCC, #CRL-229) cells in logarithmic growth phase were digested, counted, and plated into 96-well cell culture plates at 2,000 cells per well. The plates containing cells were incubated overnight at 37°C in a 5% CO2 incubator, and then test compounds with 3-fold gradient dilutions (maximum concentration: 10 µM, 9 concentrations) were added. DMSO was used as a blank control. After the LoVo cells containing the compounds or DMSO were incubated for an additional 5 days, an equal volume of CellTiter-Glo reagent (Promega, #7573) was added. After incubation at room temperature for 30 minutes, chemiluminescence was read using an Envision 2105 (PerkinElmer). The cell proliferation inhibition rate (%) for wells treated with each concentration of the compounds was calculated using the following formula. Then, with compound concentration as the horizontal axis and cell proliferation inhibition rate (%) as the vertical axis, GraphPad software was used to plot the data and determine the IC50 values of the test compounds. The results are shown in Table 2, wherein the IC50 ranges are defined as follows: A: ≤ 100 nM; 1000 nM ≥ B > 100 nM; C > 1000 nM.
Cell proliferation inhibition (%) = (1 - luminescence value of compound-treated group / average luminescence value of DMSO blank control group) × 100. Table 2. Inhibitory effect of compounds on LoVo growth

Where [3] appears, read: 1 nM ATR kinase (Eurofins), 28°C for 3 hours, maximum concentration 1 µM, 10 concentrations, read-out: ATR kinase IC50.
The mark [4] stands for this setting: LoVo cells, 2,000 cells per well, 5 days incubation, CellTiter-Glo, read-out: LoVo IC50.
[5] abbreviates: Homo sapiens, LoVo, 120 h, LoVo cells, 2,000 cells per well, 5 days incubation, CellTiter-Glo, read-out: LoVo IC50.
Setting [6] is: read-out: ATR kinase IC50, 1 nM ATR kinase (Eurofins), 28°C for 3 hours, maximum concentration 1 µM, 10 concentrations.
[7] abbreviates: Homo sapiens, LoVo, 120 h, read-out: LoVo IC50 (nM), LoVo cells, 2,000 cells per well, 5 days incubation, CellTiter-Glo.

T1 sequence (Q13535 whole entry): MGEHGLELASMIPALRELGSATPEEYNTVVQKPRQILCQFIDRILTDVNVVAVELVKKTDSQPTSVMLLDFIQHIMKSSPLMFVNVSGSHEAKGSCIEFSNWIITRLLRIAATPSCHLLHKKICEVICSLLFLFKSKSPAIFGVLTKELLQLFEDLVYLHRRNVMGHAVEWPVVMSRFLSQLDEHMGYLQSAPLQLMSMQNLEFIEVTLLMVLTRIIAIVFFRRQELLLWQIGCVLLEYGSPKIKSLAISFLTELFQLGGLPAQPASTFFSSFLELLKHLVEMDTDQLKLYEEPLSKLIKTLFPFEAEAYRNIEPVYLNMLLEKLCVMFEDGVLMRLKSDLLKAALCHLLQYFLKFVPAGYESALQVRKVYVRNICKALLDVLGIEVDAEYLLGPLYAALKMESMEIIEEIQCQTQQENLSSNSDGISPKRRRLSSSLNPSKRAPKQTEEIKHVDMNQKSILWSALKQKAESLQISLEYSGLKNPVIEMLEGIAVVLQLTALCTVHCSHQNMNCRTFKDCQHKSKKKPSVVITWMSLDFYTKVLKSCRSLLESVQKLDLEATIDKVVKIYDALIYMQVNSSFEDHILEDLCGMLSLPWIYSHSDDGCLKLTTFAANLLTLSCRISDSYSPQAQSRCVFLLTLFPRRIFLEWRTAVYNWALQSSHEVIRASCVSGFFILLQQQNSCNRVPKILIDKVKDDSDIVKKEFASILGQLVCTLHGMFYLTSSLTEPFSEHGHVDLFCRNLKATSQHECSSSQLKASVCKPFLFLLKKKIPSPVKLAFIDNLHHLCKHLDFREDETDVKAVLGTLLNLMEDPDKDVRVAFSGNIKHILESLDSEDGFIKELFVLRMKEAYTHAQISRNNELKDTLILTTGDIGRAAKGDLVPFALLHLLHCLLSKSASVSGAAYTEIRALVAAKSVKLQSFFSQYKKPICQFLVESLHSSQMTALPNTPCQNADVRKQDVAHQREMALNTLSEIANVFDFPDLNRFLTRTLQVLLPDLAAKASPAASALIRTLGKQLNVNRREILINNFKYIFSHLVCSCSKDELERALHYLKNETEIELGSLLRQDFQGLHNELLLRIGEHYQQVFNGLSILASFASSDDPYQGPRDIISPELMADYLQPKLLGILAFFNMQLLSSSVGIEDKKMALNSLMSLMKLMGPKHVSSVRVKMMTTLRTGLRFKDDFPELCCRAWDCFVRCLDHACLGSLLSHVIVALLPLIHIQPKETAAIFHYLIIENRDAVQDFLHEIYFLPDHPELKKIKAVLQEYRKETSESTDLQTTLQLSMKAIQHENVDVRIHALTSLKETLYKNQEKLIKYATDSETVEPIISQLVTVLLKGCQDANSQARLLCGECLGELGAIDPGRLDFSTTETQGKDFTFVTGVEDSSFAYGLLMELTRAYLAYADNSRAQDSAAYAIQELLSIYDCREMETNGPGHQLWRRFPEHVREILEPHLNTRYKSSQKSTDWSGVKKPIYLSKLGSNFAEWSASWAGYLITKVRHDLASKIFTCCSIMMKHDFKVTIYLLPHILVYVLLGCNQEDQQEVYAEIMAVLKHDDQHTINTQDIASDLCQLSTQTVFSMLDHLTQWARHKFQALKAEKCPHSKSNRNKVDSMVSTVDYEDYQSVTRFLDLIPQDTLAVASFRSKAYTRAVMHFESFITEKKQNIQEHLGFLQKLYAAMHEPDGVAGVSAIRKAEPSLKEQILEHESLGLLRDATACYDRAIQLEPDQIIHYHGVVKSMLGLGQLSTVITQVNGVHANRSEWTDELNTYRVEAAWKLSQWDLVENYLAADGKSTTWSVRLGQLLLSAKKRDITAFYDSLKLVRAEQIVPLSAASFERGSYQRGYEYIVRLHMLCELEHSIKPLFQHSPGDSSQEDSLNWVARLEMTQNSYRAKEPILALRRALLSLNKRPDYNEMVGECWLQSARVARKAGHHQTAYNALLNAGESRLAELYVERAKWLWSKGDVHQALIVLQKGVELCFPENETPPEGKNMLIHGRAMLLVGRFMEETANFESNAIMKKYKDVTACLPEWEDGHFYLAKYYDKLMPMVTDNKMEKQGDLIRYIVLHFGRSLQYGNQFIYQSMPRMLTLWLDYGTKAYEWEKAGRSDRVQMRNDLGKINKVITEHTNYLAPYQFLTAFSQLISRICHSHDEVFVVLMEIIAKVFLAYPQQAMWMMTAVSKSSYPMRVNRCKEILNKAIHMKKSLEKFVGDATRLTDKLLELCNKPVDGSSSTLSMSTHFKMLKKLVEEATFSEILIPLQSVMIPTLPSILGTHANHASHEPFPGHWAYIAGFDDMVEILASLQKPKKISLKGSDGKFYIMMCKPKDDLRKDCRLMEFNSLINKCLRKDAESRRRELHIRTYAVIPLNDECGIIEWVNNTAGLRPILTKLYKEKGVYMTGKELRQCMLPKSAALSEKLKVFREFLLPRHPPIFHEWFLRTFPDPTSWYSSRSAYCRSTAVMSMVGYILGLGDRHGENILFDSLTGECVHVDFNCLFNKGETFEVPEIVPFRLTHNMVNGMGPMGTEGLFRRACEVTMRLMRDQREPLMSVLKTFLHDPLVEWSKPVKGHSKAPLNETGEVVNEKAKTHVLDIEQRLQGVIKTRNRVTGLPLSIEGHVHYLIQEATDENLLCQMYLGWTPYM
T1 sequence (Q8WXE1 whole entry partner): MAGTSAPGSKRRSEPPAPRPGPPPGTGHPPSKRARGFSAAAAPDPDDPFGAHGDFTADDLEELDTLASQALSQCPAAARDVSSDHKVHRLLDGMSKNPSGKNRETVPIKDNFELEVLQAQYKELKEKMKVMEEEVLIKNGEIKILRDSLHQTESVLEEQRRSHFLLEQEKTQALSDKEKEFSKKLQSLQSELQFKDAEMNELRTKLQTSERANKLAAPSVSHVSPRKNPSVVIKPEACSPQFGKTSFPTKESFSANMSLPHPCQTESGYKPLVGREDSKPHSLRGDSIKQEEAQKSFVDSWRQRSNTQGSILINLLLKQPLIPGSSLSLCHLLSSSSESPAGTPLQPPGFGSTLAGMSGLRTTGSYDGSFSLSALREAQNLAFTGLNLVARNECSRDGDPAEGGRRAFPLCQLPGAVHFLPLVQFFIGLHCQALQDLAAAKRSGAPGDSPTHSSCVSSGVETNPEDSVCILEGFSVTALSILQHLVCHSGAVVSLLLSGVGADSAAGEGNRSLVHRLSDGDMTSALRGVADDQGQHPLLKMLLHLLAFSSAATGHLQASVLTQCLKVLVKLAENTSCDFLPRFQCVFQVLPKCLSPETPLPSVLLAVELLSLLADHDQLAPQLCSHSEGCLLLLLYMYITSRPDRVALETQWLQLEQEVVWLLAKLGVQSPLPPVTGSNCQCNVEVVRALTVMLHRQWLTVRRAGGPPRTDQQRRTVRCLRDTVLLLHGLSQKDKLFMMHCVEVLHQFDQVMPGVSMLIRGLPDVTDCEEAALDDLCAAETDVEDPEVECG

For the compound `C[C@@H]1COCCN1c1cc2c3c(nn(-c4cc[nH]n4)c3n1)CCN(C1CC(C(F)(F)F)C1)C2` (single isomer, unassigned) [Compound 13A], the IC50 lay within 10 to 100 nM in assay [1] (setting [3]) and 100 to 1000 nM in assay [2] (setting [4]).

Consider `C[C@@H]1COCCN1c1cc2c3c(nn(-c4cc[nH]n4)c3n1)CCN(C1CC(C(F)(F)F)C1)C2` (single isomer, unassigned) [Compound 13B], for which the IC50 in assay [1] (setting [3]) was 100 to 1000 nM; in assay [2] (setting [4]), > 1000 nM.

For `C[C@@H]1COCCN1c1cc2c3c(nn(-c4cc[nH]n4)c3n1)CCN(C(=O)C1CC3(C1)CC3(F)F)C2` (single isomer, unassigned) [Compound 20A], the IC50 in assay [1] (setting [3]) was 10 to 100 nM; in assay [2] (setting [5]), > 1000 nM.

Turning to `C[C@@H]1COCCN1c1cc2c3c(nn(-c4cc[nH]n4)c3n1)CCN(C(=O)C1CC3(C1)CC3(F)F)C2` (single isomer, unassigned) [Compound 20B], the IC50 in assay [1] (setting [3]) was 10 to 100 nM; in assay [2] (setting [4]), > 1000 nM.

With `CC1c2cc(N3CCOC[C@H]3C)nc3c2c(nn3-c2cc[nH]n2)CCN1C1CC1` (single isomer, unassigned) [Compound 31A], the values for the IC50 in assay [1] (setting [3]) and in assay [2] (setting [5]) were < 10 nM and < 100 nM, respectively.

As to `CC1c2cc(N3CCOC[C@H]3C)nc3c2c(nn3-c2cc[nH]n2)CCN1C1CC1` (single isomer, unassigned) [Compound 31B], the IC50 in assay [1] (setting [3]) was < 10 nM; in assay [2] (setting [4]), < 100 nM.

On to `CC1c2cc(N3CCOC[C@H]3C)nc3c2c(nn3-c2cc[nH]n2)CCN1C1COC1` (single isomer, unassigned) [Compound 32A], for which the values for the IC50 in assay [1] (setting [3]) and in assay [2] (setting [5]) were 10 to 100 nM and 100 to 1000 nM, respectively.

As for `CC1c2cc(N3CCOC[C@H]3C)nc3c2c(nn3-c2cc[nH]n2)CCN1C1COC1` (single isomer, unassigned) [Compound 32B], the IC50 is 10 to 100 nM in assay [1] (setting [3]) and < 100 nM in assay [2] (setting [4]).

With `CC1c2cc(N3CCOC[C@H]3C)nc3c2c(nn3-c2cc[nH]n2)CCN1C(=O)C1(C(F)(F)F)CC1` (single isomer, unassigned) [Compound 33A], the IC50 in assay [1] (setting [6]) was < 10 nM; in assay [2] (setting [7]) it was < 100 nM.

For the compound `CC1c2cc(N3CCOC[C@H]3C)nc3c2c(nn3-c2cc[nH]n2)CCN1C(=O)C1(C(F)(F)F)CC1` (single isomer, unassigned) [Compound 33B], the IC50 lay within 100 to 1000 nM in assay [1] (setting [6]) and 100 to 1000 nM in assay [2] (read-out: LoVo IC50, LoVo cells, 2,000 cells per well, 5 days incubation, CellTiter-Glo).

`CC1c2cc(N3CCOC[C@H]3C)nc3c2c(nn3-c2cc[nH]n2)CCN1C` (single isomer, unassigned) [Compound 35A]: the IC50 in assay [1] (setting [3]) is < 10 nM; in assay [2] (setting [5]), < 100 nM.

As to `CC1c2cc(N3CCOC[C@H]3C)nc3c2c(nn3-c2cc[nH]n2)CCN1C` (single isomer, unassigned) [Compound 35B], the IC50 in assay [1] (setting [3]) is < 10 nM.

Consider `CC(C)N1CCc2nn(-c3cc[nH]n3)c3nc(N4CCOC[C@H]4C)cc(c23)C1C` (single isomer, unassigned) [Compound 36A], for which the values for the IC50 in assay [1] (setting [3]) and in assay [2] (setting [5]) were < 10 nM and 100 to 1000 nM, respectively.

For the compound `CC1c2cc(N3CCOC[C@H]3C)nc3c(-c4cc[nH]n4)nn(c23)CCN1S(C)(=O)=O` (stereo partly drawn) [Compound 60, (3R)-3-methyl-4-(6-methyl-7-(methylsulfonyl)-2-(1H-pyrazol-3-yl)-6,7,8,9-tetrahydro-1,3,7,9a-tetraazabenzo[cd]azulen-4-yl)morpholine], in assay [2] (setting [5]), the IC50 lay within 100 to 1000 nM.

Turning to `C[C@@H]1COCCN1c1cc2c3c(n1)c(-c1cc[nH]n1)nn3CCN2` [Compound 61, (R)-4-(1-(1H-pyrazol-3-yl)-4,5-dihydro-3H-2,2a,5,8-tetraazaacenaphthen-7-yl)-3-methylmorpholine], in assay [1] (setting [3]), the IC50 was 1000 to 2500 nM.

On to `C[C@@H]1COCCN1c1cc2c3c(n1)c(-c1cc[nH]n1)nn3CCN2S(C)(=O)=O` [Compound 64], for which, in assay [2] (setting [5]), the IC50 is 100 to 1000 nM.

For `C[C@@H]1COCCN1c1cc2c3c(n1)c(-c1cc[nH]n1)nn3CCC2(C)O` (stereo partly drawn) [Compound 71, 6-methyl-4-((R)-3-methylmorpholino)-2-(1H-pyrazol-3-yl)-7,8-dihydro-6H-pyrazolo[4,5,1-ij][1, 7]naphthyridin-6-ol], in assay [2] (setting [5]), the IC50 was in the range of 100 to 1000 nM.

Consider `C[C@@H]1COCCN1c1cc2c3c(nn(-c4cc[nH]n4)c3n1)CCC(=O)N2C12CC(C1)C2` [Compound 76, (R)-6-(bicyclo[1.1.1]pentan-1-yl)-4-(3-methylmorpholinyl)-2-(1H-pyrazol-3-yl)-2,6,8,9-tetrahydro-7H-1,2,3,6-tetraazabenzo[cd]azulene-7-one], for which, in assay [2] (setting [7]), the IC50 is < 100 nM.

With `C[C@@H]1COCCN1c1cc2c3c(nn(-c4cc[nH]n4)c3n1)CCC(=O)N2C1(CF)CC1` [Compound 80, (R)-6-(1-(fluoromethyl)cyclopropyl)-4-(3-methylmorpholinyl)-2-(1H-pyrazol-3-yl)-2,6,8,9-tetrahydro-7H-1,2,3,6-tetraazabenzo[cd]azulene-7-one], in assay [2] (setting [7]), the IC50 was < 100 nM.

For `C[C@@H]1COCCN1c1cc2c3c(n1)c(-c1cc[nH]n1)nn3CCC(=O)N2C1CC2(C1)CC(C)(O)C2` (stereo partly drawn) [Compound 94, (R)-6-(6-hydroxy-6-methylspiro[3.3]hept-2-yl)-4-(3-methylmorpholinyl)-2-(1H-pyrazol-3-yl)-8,9-dihydro-1,3,6,9a-tetraazabenzo[cd]azulene-7(6H)-one], the IC50 in assay [1] (setting [6]) lay within 10 to 100 nM.

As for `CC(C(N)=O)N1C(=O)CCn2nc(-c3cc[nH]n3)c3nc(N4CCOC[C@H]4C)cc1c32` (stereo partly drawn) [Compound 104, 2-(4-((R)-3-methylmorpholino)-7-oxo-2-(1H-pyrazol-3-yl)-8,9-dihydro-1,3,6,9a-tetraazabenzo[cd]azulene-6(7H)-yl)propanamide], the IC50 in assay [1] (setting [3]) fell in the range of 10 to 100 nM.

For `C[C@@H]1COCCN1c1cc2c3c(n1)c(-c1cc[nH]n1)nn3CCC(=O)N2[C@@H](C)CC(F)(F)F` [Compound 111A, 4-((R)-3-methylmorpholino)-2-(1H-pyrazol-3-yl)-6-((S)-4,4,4-trifluorobutan-2-yl)-8,9-dihydro-1,3,6,9a-tetraazabenzo[cd]azulene-7(6H)-one], the IC50 in assay [2] (setting [5]) lay within 100 to 1000 nM.

For `C[C@@H]1COCCN1c1cc2c3c(n1)c(-c1cc[nH]n1)nn3CCC(=O)N2[C@H](C)CC(F)(F)F` [Compound 111B, 4-((R)-3-methylmorpholino)-2-(1H-pyrazol-3-yl)-6-((R)-4,4,4-trifluorobutan-2-yl)-8,9-dihydro-1,3,6,9a-tetraazabenzo[cd]azulene-7(6H)-one], the IC50 in assay [2] (setting [5]) is 100 to 1000 nM.

As to `C[C@@H]1COCCN1c1cc2c3c(nn(-c4cc[nH]n4)c3n1)CCN(C)C2=O` [Compound 137, (R)-7-methyl-4-(3-methylmorpholinyl)-2-(1H-pyrazol-3-yl)-2,7,8,9-tetrahydro-6H-1,2,3,7-tetraazabenzo[cd]azulene-6-one], the IC50 in assay [1] (setting [6]) lay in the range of 10 to 100 nM.

As for `C[C@@H]1COCCN1c1cc2c3c(nn(-c4cc[nH]n4)c3n1)CCN(S(=O)(=O)C1CC1)C2C1CC1` (stereo partly drawn) [Compound 143, (3R)-4-(6-cyclopropyl-7-(cyclopropylsulfonyl)-2-(1H-pyrazol-3-yl)-6,7,8,9-tetrahydro-2H-1,2,3,7-tetraazabenzo[cd]-azulen-4-yl)-3-methylmorpholine], the IC50 in assay [2] (setting [5]) was in the range of 100 to 1000 nM.

Take `C[C@@H]1COCCN1c1cc2c3c(nn(-c4cc[nH]n4)c3n1)CCOC2C(F)F` (stereo partly drawn) [Compound 148, 6-(difluoromethyl)-4-((R)-3-methylmorpholino)-2-(1H-pyrazol-3-yl)-2,6,8,9-tetrahydro-7-oxa-1,2,3-triazabenzo[cd]azulene]: the IC50 in assay [2] (setting [5]) is < 100 nM.

Consider `CC1c2cc(N3CCOC[C@H]3C)nc3c2c(nn3-c2cc[nH]n2)CCN1S(N)(=O)=O` (stereo partly drawn) [Compound 150, 6-methyl-4-((R)-3-methylmorpholino)-2-(1H-pyrazol-3-yl)-2,6,8,9-tetrahydro-7H-1,2,3,7-tetraazabenzene[cd]azulene-7-sulfonamide], for which the IC50 in assay [2] (setting [5]) was 100 to 1000 nM.
